Assay [1] has as its system Leishmania donovani. Kind of assay: Animal test: Balb/c mice infected with Leishmania donovani, intravenous treatment once daily for 5 days, liver parasite count. Format: in vivo, Leishmania donovani in Balb/c mice. As to conditions: for ED50 (P95 limits): i.v. daily for 5 days, 10080 min. An excerpt:
(§1) Inbred male mice, strain Balb/c (Bantin & Kingman), were infected with Leishmania donovani by intravenous inoculation of 10^7 amastigotes from the spleen of an infected hamster. One week after inoculation, the mice were divided into groups of 9-10 animals and dosed intravenously into the tail vein with sodium stibogluconate, either as free drug or entrapped in liposomes similar to those described in Example 1. The dose was given once daily for 5 days. Empty liposomes were inoculated into one group as controls. Seven days after the first dose of drug, the mice were killed, the livers excised and weighed, and impression smears prepared from a cut surface of the liver. The impression smears were stained with Giemsa, and number of amastigotes counted microscopically per 500 liver cell nuclei, and the total number of parasites calculated by the method of Stauber et al. J. Protozoology, 5, 269, (1958).
(§2) The doses of sodium stibogluconate were calculated in terms of mg antimony/kg for both free and entrapped drug. The liposome dilutions were freshly prepared for each day of drug treatment.
The results of treatment are expressed as the mean of the total numbers of amastigotes in the liver of each mouse.

The test system of assay [2] is Leishmania donovani. Put plainly: Animal test: mice infected with Leishmania donovani, single intravenous injection (Experiment No. 82), liver parasite count. In kind it is in vivo, Leishmania donovani in Balb/c mice.
Source text: as §1, with “The dose was given once daily for 5 days.” left out
as §2
The results of treatment are expressed as the mean of the total numbers of amastigotes in the liver of each mouse. The following results were obtained:
Further animal tests on mice, as described in Example 2, were carried out using a liposomal formulation corresponding to that described as Preparation No. 8 in Example 2. […]

[3] abbreviates: expt. 44, 15 mg Sb/kg × 5, i.v.
Setting [4] is: expt. 56, 0.5 mg Sb/kg × 5, i.v.
[5] abbreviates: expt. 56, 1.0 mg Sb/kg × 5, i.v.
Setting [6] is: expt. 56, 2.0 mg Sb/kg × 5, i.v.
The mark [7] stands for this setting: expt. 56, 4.0 mg Sb/kg × 5, i.v.

In general, % inhibition refers to the percentage by which the read-out fell short of the control. Read a high % inhibition as a response far below the control. As to sodium stibogluconate, the “Potency relates to free drug (P95 limits)” value in assay [1] (Expt. 44) and in assay [1] (Expt. 56) was 1 throughout. Besides, the “ED50 (P95 limits)” value in assay [1] (Expt. 44) is 2.4 (3.2-1.8) mg Sb/kg × 5; in assay [1] (Expt. 56), 1.14 (1.35-0.95) mg Sb/kg × 5. The “% inhibition” value in assay [1] (expt. 44, 5 mg Sb/kg × 5, i.v.) amounted to 72%; in assay [1] (setting [3]), 93%; in assay [1] (setting [4]), 23%; in assay [1] (setting [5]), 26%; in assay [1] (setting [6]), 69%; in assay [1] (setting [7]), 93%. The “Mean no. of parasites/mouse liver ± SE” value in assay [1] (expt. 44, 5 mg Sb/kg × 5, i.v.) is reported as 1.54 ± 0.21 × 10^8; in assay [1] (setting [3]), 0.38 ± 0.08 × 10^8; in assay [1] (setting [4]) it was 3.80 ± 0.37 × 10^8; in assay [1] (setting [5]) it was 3.65 ± 0.29 × 10^8; in assay [1] (setting [6]), 1.55 ± 0.36 × 10^8; in assay [1] (setting [7]) it was 0.35 ± 0.11 × 10^8. Also, in assay [2], the “ED50 (dosage rate necessary to reduce the parasite count to 50% of the untreated group)” value was 61.2 mg antimony per kilogram body weight.
